Measured values published in ChEMBL document CHEMBL1201862, “PubChem BioAssay data set” (2004).
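Each compound was tested at five concentrations against cells in 96-well plates for 48 hours. Here, GI50 denotes the concentration required for 50% inhibition of growth.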 Calls of active or inactive are those of the source. No stated cut-off is given here; in the data, active = GI50 up to about 1.1 µM and inactive = higher.

Assays:
Experiment in all cases: DTP human tumour cell line panel, 48 h
NCI-H522 = test system: NCI-H522
SNB-75 = test system: SNB-75
SK-MEL-2 = test system: SK-MEL-2
PC-3 = test system: PC-3
CCRF-CEM = test system: CCRF-CEM
SF-268 = test system: SF-268
TK-10 = test system: TK-10
UO-31 = test system: UO-31
RPMI-8226 = test system: RPMI-8226
SR = test system: SR
MOLT-4 = test system: MOLT-4
OVCAR-3 = test system: OVCAR-3
SNB-19 = test system: SNB-19
SW-620 = test system: SW-620
HCT-116 = test system: HCT-116
LOX IMVI = test system: LOX IMVI
DU-145 = test system: DU-145
HCT-15 = test system: HCT-15
HOP-62 = test system: HOP-62
U-251 = test system: U-251
MDA-MB-435 = test system: MDA-MB-435
SK-MEL-28 = test system: SK-MEL-28
NCI-H23 = test system: NCI-H23
Hs-578T = test system: Hs-578T
UACC-62 = test system: UACC-62
A549 = test system: A549
Malme-3M = test system: Malme-3M
A498 = test system: A498
SK-MEL-5 = test system: SK-MEL-5
OVCAR-5 = test system: OVCAR-5
SF-295 = test system: SF-295
NCI/ADR-RES = test system: NCI/ADR-RES
SK-OV-3 = test system: SK-OV-3
MDA-N = test system: MDA-N
MDA-MB-231 = test system: MDA-MB-231
OVCAR-8 = test system: OVCAR-8
COLO 205 = test system: COLO 205
SN12C = test system: SN12C
IGROV-1 = test system: IGROV-1
M14 = test system: M14
OVCAR-4 = test system: OVCAR-4
786-0 = test system: 786-0
HOP-92 = test system: HOP-92
HT-29 = test system: HT-29
NCI-H226 = test system: NCI-H226
K562 = test system: K562
HL-60 = test system: HL-60
EKVX = test system: EKVX
ACHN = test system: ACHN
KM12 = test system: KM12
MCF7 = test system: MCF7

Q: `CSC1=N/C(=C\c2ccccc2)C(=O)N1CN1CCOCC1` was tested. Which GI50 (NCI-H522) did it give?
A: 51.8 µM (inactive)

Q: And the GI50 (SNB-75)?
A: 69.2 µM (inactive)

Q: And the GI50 (SK-MEL-2)?
A: > 100 µM (inactive)

Q: What about the GI50 (PC-3) of the same compound?
A: 68.9 µM (inactive)

Q: What about the GI50 (CCRF-CEM) of the same compound?
A: 36 µM (inactive)

Q: And the GI50 (SF-268)?
A: 61.5 µM (inactive)

Q: What about the GI50 (TK-10) of the same compound?
A: > 100 µM (inactive)

Q: What about the GI50 (UO-31) of the same compound?
A: 38.3 µM (inactive)

Q: And the GI50 (RPMI-8226)?
A: 30.1 µM (inactive)

Q: And the GI50 (SR)?
A: 43.6 µM (inactive)

Q: And the GI50 (MOLT-4)?
A: 64.6 µM (inactive)

Q: What about the GI50 (OVCAR-3) of the same compound?
A: > 100 µM (inactive)

Q: And the GI50 (SNB-19)?
A: 52.5 µM (inactive)

Q: And the GI50 (SW-620)?
A: 41.6 µM (inactive)

Q: What about the GI50 (HCT-116) of the same compound?
A: 39.4 µM (inactive)

Q: What about the GI50 (LOX IMVI) of the same compound?
A: 31.6 µM (inactive)

Q: What about the GI50 (DU-145) of the same compound?
A: 96.2 µM (inactive)

Q: What about the GI50 (HCT-15) of the same compound?
A: 33.3 µM

Q: And the GI50 (HOP-62)?
A: > 100 µM (inactive)

Q: What about the GI50 (U-251) of the same compound?
A: 64.4 µM (inactive)

Q: And the GI50 (MDA-MB-435)?
A: 93.8 µM (inactive)

Q: What about the GI50 (SK-MEL-28) of the same compound?
A: > 100 µM (inactive)

Q: What about the GI50 (NCI-H23) of the same compound?
A: > 100 µM (inactive)

Q: And the GI50 (Hs-578T)?
A: 47.5 µM (inactive)

Q: And the GI50 (UACC-62)?
A: 34 µM (inactive)

Q: And the GI50 (A549)?
A: > 100 µM (inactive)

Q: And the GI50 (Malme-3M)?
A: 57.3 µM (inactive)

Q: What about the GI50 (A498) of the same compound?
A: > 100 µM (inactive)

Q: And the GI50 (SK-MEL-5)?
A: 50.5 µM (inactive)

Q: What about the GI50 (OVCAR-5) of the same compound?
A: > 100 µM (inactive)

Q: And the GI50 (SF-295)?
A: > 100 µM (inactive)

Q: And the GI50 (NCI/ADR-RES)?
A: 17.1 µM (inactive)

Q: And the GI50 (SK-OV-3)?
A: > 100 µM (inactive)

Q: What about the GI50 (MDA-N) of the same compound?
A: > 100 µM (inactive)

Q: And the GI50 (MDA-MB-231)?
A: > 100 µM (inactive)

Q: And the GI50 (OVCAR-8)?
A: 41.1 µM (inactive)

Q: What about the GI50 (COLO 205) of the same compound?
A: 54.5 µM (inactive)

Q: And the GI50 (SN12C)?
A: > 100 µM (inactive)

Q: What about the GI50 (IGROV-1) of the same compound?
A: 52.7 µM (inactive)

Q: What about the GI50 (M14) of the same compound?
A: 91.8 µM (inactive)

Q: And the GI50 (OVCAR-4)?
A: 28.2 µM (inactive)

Q: What about the GI50 (786-0) of the same compound?
A: 41.1 µM (inactive)

Q: What about the GI50 (HOP-92) of the same compound?
A: > 100 µM (inactive)

Q: What about the GI50 (HT-29) of the same compound?
A: 30.8 µM (inactive)

Q: And the GI50 (NCI-H226)?
A: 41.6 µM (inactive)

Q: And the GI50 (K562)?
A: 41.9 µM (inactive)

Q: And the GI50 (HL-60)?
A: 54.6 µM (inactive)

Q: What about the GI50 (EKVX) of the same compound?
A: 50.6 µM (inactive)

Q: What about the GI50 (ACHN) of the same compound?
A: 38.9 µM (inactive)

Q: And the GI50 (KM12)?
A: 93.5 µM (inactive)

Q: What about the GI50 (MCF7) of the same compound?
A: 28.3 µM (inactive)
